# Data as given in PubChem BioAssay AID330 (DTP/NCI, 2004).
# “And” between values parts separate entries of the source, which are not always exact repeats. Equal entries are not always repeated. Toxic doses and inconclusive results are not listed.
# Tested on: P388 leukemia ip, CD2F1 mice, survival T/C
# Assay: NCI In Vivo Anticancer Drug Screen. Data for tumor model P388 Leukemia (intraperitoneal) in CD2F1 (CDF1) mice
# Conditions: endpoint: median survival time, higher = longer survival
# How it was run: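 Mice carrying the transplanted tumor received test compound or vehicle. Survival was recorded in each group, and the value is the treated-group measurement divided by that of the vehicle-treated control group.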
# [1] = dose: 50.0 mg/kg/injection, schedule: Q01DX005 (ip), vehicle: Klucel (hydroxypropylcellulose) (HPC)
# [2] = dose: 100.0 mg/kg/injection, schedule: Q01DX005 (ip), vehicle: Klucel (hydroxypropylcellulose) (HPC)
# [3] = dose: 6.25 mg/kg/injection, schedule: Q01DX009 (ip), vehicle: saline with Tween-80
# [4] = dose: 50.0 mg/kg/injection, schedule: Q01DX005 (ip), vehicle: saline with Tween-80
# [5] = dose: 100.0 mg/kg/injection, schedule: Q01DX005 (ip), vehicle: saline with Tween-80
# [6] = dose: 200.0 mg/kg/injection, schedule: Q01DX005 (ip), vehicle: saline with Tween-80
# [7] = dose: 60.0 mg/kg/injection, schedule: Q01DX005 (ip), vehicle: saline with Tween-80
# [8] = dose: 120.0 mg/kg/injection, schedule: Q01DX005 (ip), vehicle: saline with Tween-80
# [9] = dose: 240.0 mg/kg/injection, schedule: Q01DX005 (ip), vehicle: saline with Tween-80
smiles,measurement,setting,value
CC(=O)OC1C(O)C(C)OC(OC2C(OC(=O)C3CCC4C(C3)OC3(CC(OC(=O)/C=C/c5ccccc5)C(C)CO3)C43CO3)OC(C)C(O)C2OC(C)=O)C1O (configuration not stated),T/C,"dose: 0.25 mg/kg/injection, schedule: Q01DX009 (ip), vehicle: saline",91 % of control
same,T/C,"dose: 0.5 mg/kg/injection, schedule: Q01DX009 (ip), vehicle: saline",100 % of control
same,T/C,"dose: 1.0 mg/kg/injection, schedule: Q01DX009 (ip), vehicle: saline + alcohol",113 % of control
same,T/C,"dose: 1.0 mg/kg/injection, schedule: Q01DX009 (ip), vehicle: saline",110 % of control
same,T/C,"dose: 2.0 mg/kg/injection, schedule: Q01DX009 (ip), vehicle: saline + alcohol",119 % of control
same,T/C,"dose: 2.0 mg/kg/injection, schedule: Q01DX009 (ip), vehicle: saline",117 % of control
same,T/C,"dose: 4.0 mg/kg/injection, schedule: Q01DX009 (ip), vehicle: saline + alcohol",124 % of control
CCCCN(CCCC)C1CCC(Nc2ccnc3cc(Cl)ccc23)CC1 (configuration not stated),T/C,[1],98 % of control
same,T/C,[2],95 % of control
Cc1cnc(NCCCCCCNc2ncc(C)c(-c3ccccc3O)n2)nc1-c1ccccc1O,T/C,"dose: 100.0 mg/kg/injection, schedule: Q04DX003 (ip), vehicle: saline with Tween-80",91 % of control
same,T/C,"dose: 200.0 mg/kg/injection, schedule: Q04DX003 (ip), vehicle: saline with Tween-80",97 % of control
same,T/C,"dose: 400.0 mg/kg/injection, schedule: Q04DX003 (ip), vehicle: saline with Tween-80",91 % of control
CC(=O)NC(/C=C/c1ccc(Cl)c(Cl)c1)c1cccc(O)c(=O)c1 (configuration not stated),T/C,[3],100 % of control
same,T/C,"dose: 12.5 mg/kg/injection, schedule: Q01DX009 (ip), vehicle: saline with Tween-80",99 % of control
same,T/C,"dose: 25.0 mg/kg/injection, schedule: Q01DX009 (ip), vehicle: saline with Tween-80",113 % of control
same,T/C,"dose: 25.0 mg/kg/injection, schedule: Q01DX009 (ip), vehicle: saline",119 % of control
same,T/C,"dose: 50.0 mg/kg/injection, schedule: Q01DX009 (ip), vehicle: saline",124 % of control
same,T/C,"dose: 100.0 mg/kg/injection, schedule: Q01DX009 (ip), vehicle: saline",98 % of control
CCCCCCOC(=O)c1ccc(OC)cc1,T/C,"dose: 50.0 mg/kg/injection, schedule: Q01DX009 (ip), vehicle: saline with Tween-80",104 % of control
same,T/C,"dose: 100.0 mg/kg/injection, schedule: Q01DX009 (ip), vehicle: saline with Tween-80",106 % of control
same,T/C,"dose: 200.0 mg/kg/injection, schedule: Q01DX009 (ip), vehicle: saline with Tween-80",108 % of control
CC(C)=CCC(OC(=O)C=C(C)C)C1=CC(=O)c2c(O)ccc(O)c2C1=O (configuration not stated),T/C,"dose: 1.56 mg/kg/injection, schedule: Q01DX009 (ip), vehicle: water",108 % of control
same,T/C,"dose: 3.12 mg/kg/injection, schedule: Q01DX009 (ip), vehicle: water",107 % of control
same,T/C,"dose: 6.25 mg/kg/injection, schedule: Q01DX009 (ip), vehicle: water",117 % of control
same,T/C,"dose: 10.0 mg/kg/injection, schedule: Q01DX009 (ip), vehicle: saline with Tween-80",110 % of control
same,T/C,"dose: 10.0 mg/kg/injection, schedule: Q04DX003 (ip), vehicle: saline with Tween-80",109 % of control
same,T/C,"dose: 12.5 mg/kg/injection, schedule: Q01DX009 (ip), vehicle: water",119 % of control
same,T/C,"dose: 20.0 mg/kg/injection, schedule: Q01DX009 (ip), vehicle: saline with Tween-80",110 % of control
same,T/C,"dose: 20.0 mg/kg/injection, schedule: Q04DX003 (ip), vehicle: saline with Tween-80",90 % of control
same,T/C,"dose: 40.0 mg/kg/injection, schedule: Q04DX003 (ip), vehicle: saline with Tween-80",104 % of control
O=[N+]([O-])OI(c1ccccc1)c1ccccc1,T/C,"dose: 1.56 mg/kg/injection, schedule: Q01DX009 (ip), vehicle: saline",100 % of control and 101 % of control (2×)
same,T/C,"dose: 3.12 mg/kg/injection, schedule: Q01DX009 (ip), vehicle: saline",101 % of control and 104 % of control
N=C(N)Cl,T/C,"dose: 15.0 mg/kg/injection, schedule: Q01DX005 (ip), vehicle: saline",100 % of control
same,T/C,"dose: 30.0 mg/kg/injection, schedule: Q01DX005 (ip), vehicle: saline",94 % of control
same,T/C,"dose: 60.0 mg/kg/injection, schedule: Q01DX005 (ip), vehicle: saline",88 % of control
OCc1ccc(O)c(O)c1,T/C,"dose: 50.0 mg/kg/injection, schedule: Q01DX005 (ip), vehicle: saline",116 % of control
same,T/C,"dose: 100.0 mg/kg/injection, schedule: Q01DX005 (ip), vehicle: saline",123 % of control
same,T/C,"dose: 200.0 mg/kg/injection, schedule: Q01DX005 (ip), vehicle: saline",123 % of control
same,T/C,"dose: 400.0 mg/kg/injection, schedule: Q01DX005 (ip), vehicle: saline",120 % of control
C=CC(O)CN1CC1 (configuration not stated),T/C,"dose: 0.75 mg/kg/injection, schedule: Q04DX003 (ip), vehicle: saline",122 % of control
same,T/C,"dose: 1.25 mg/kg/injection, schedule: Q01DX009 (ip), vehicle: saline",158 % of control
same,T/C,"dose: 2.5 mg/kg/injection, schedule: Q01DX009 (ip), vehicle: saline",113 % of control and 212 % of control
same,T/C,"dose: 3.0 mg/kg/injection, schedule: Q04DX003 (ip), vehicle: saline",181 % of control
same,T/C,"dose: 6.0 mg/kg/injection, schedule: Q04DX003 (ip), vehicle: saline",154 % of control
same,T/C,"dose: 10.0 mg/kg/injection, schedule: Q04DX003 (ip), vehicle: saline",154 % of control
O=[N+]([O-])c1c(Cl)sc(Cl)c1[N+](=O)[O-],T/C,"dose: 1.56 mg/kg/injection, schedule: Q01DX009 (ip), vehicle: saline with Tween-80",105 % of control
same,T/C,"dose: 3.12 mg/kg/injection, schedule: Q01DX009 (ip), vehicle: saline with Tween-80",104 % of control
same,T/C,[3],87 % of control and 95 % of control
same,T/C,"dose: 6.25 mg/kg/injection, schedule: Q04DX003 (ip), vehicle: saline sonified",110 % of control
same,T/C,"dose: 12.5 mg/kg/injection, schedule: Q04DX003 (ip), vehicle: saline sonified",100 % of control
same,T/C,"dose: 25.0 mg/kg/injection, schedule: Q04DX003 (ip), vehicle: saline sonified",100 % of control
CC(=O)C(CCCn1c(=O)c2c(ncn2C)n(C)c1=O)CCCn1c(=O)c2c(ncn2C)n(C)c1=O,T/C,"dose: 60.0 mg/kg/injection, schedule: Q01DX005 (ip), vehicle: Klucel (hydroxypropylcellulose) (HPC)",102 % of control
same,T/C,"dose: 120.0 mg/kg/injection, schedule: Q01DX005 (ip), vehicle: Klucel (hydroxypropylcellulose) (HPC)",99 % of control
same,T/C,"dose: 240.0 mg/kg/injection, schedule: Q01DX005 (ip), vehicle: Klucel (hydroxypropylcellulose) (HPC)",104 % of control
C[C@@H]1C[C@@H]2c3cccc4c3c(cn4C)C[C@H]2N(C)C1,T/C,[4],104 % of control
same,T/C,[5],107 % of control
same,T/C,[6],104 % of control
CCOC(=O)Nc1cc2c(cn1)[nH]c1ccccc12,T/C,[7],105 % of control
same,T/C,[8],114 % of control
same,T/C,[9],112 % of control
CCOC(=O)c1c(Cl)c(CC)c(Cl)n2c1nc1ccccc12,T/C,[7],97 % of control
same,T/C,[8],93 % of control
same,T/C,[9],101 % of control
O=C(Nc1cccc(C(F)(F)F)c1)OC1CC2CC1C1CC3OC3C21 (configuration not stated),T/C,[1],93 % of control
same,T/C,[2],87 % of control
COC1=CCC(Cc2ccc[nH]2)=CC1,T/C,"dose: 100.0 mg/kg/injection, schedule: Q01DX001 (ip), vehicle: distilled water + Tween-80 + alcohol",98 % of control
same,T/C,"dose: 200.0 mg/kg/injection, schedule: Q01DX001 (ip), vehicle: distilled water + Tween-80 + alcohol",105 % of control
same,T/C,"dose: 400.0 mg/kg/injection, schedule: Q01DX001 (ip), vehicle: distilled water + Tween-80 + alcohol",107 % of control
C/C(=N\NC(N)=Nc1ccccc1)c1ccc(Cl)c(Cl)c1,T/C,"dose: 25.0 mg/kg/injection, schedule: Q04DX002 (ip), vehicle: saline with Tween-80",100 % of control
same,T/C,"dose: 50.0 mg/kg/injection, schedule: Q04DX002 (ip), vehicle: saline with Tween-80",101 % of control
same,T/C,"dose: 100.0 mg/kg/injection, schedule: Q04DX002 (ip), vehicle: saline with Tween-80",110 % of control
Cc1[nH]nc2c(NC[c-]3[c-][c-][c-][c-]3)ncnc12.[Fe].[c-]1[c-][c-][cH-][c-]1,T/C,"dose: 6.25 mg/kg/injection, schedule: Q01DX005 (ip), vehicle: Klucel (hydroxypropylcellulose) (HPC)",101 % of control
same,T/C,"dose: 12.5 mg/kg/injection, schedule: Q01DX005 (ip), vehicle: Klucel (hydroxypropylcellulose) (HPC)",100 % of control
same,T/C,"dose: 25.0 mg/kg/injection, schedule: Q01DX005 (ip), vehicle: Klucel (hydroxypropylcellulose) (HPC)",115 % of control and 86 % of control
CC(NC(=O)OC(C)(C)C)C(=O)NC(C)C(=O)NC(C)C(=O)OCc1ccccc1 (configuration not stated),T/C,[4],99 % of control
same,T/C,[5],99 % of control
same,T/C,[6],101 % of control
